Measurements: ChEMBL document CHEMBL1201862, “PubChem BioAssay data set” (2004)
Activity calls are given as the source filed them.

Columns and labels:
Exodeoxyribonuclease V = target: T1, Exodeoxyribonuclease V (Escherichia coli (strain K12), UniProt P04993+P07648+P08394); experiment: RecBCD inhibition via phage-restricted bacterial growth – absorbance, V66 E. coli, mutant T4 phage, counter-screen for AddAB inhibitor project, dose response (AID 492957); format: functional, cell-based, Escherichia coli str. K-12 substr. MG1655
T1 sequence (P04993 whole entry): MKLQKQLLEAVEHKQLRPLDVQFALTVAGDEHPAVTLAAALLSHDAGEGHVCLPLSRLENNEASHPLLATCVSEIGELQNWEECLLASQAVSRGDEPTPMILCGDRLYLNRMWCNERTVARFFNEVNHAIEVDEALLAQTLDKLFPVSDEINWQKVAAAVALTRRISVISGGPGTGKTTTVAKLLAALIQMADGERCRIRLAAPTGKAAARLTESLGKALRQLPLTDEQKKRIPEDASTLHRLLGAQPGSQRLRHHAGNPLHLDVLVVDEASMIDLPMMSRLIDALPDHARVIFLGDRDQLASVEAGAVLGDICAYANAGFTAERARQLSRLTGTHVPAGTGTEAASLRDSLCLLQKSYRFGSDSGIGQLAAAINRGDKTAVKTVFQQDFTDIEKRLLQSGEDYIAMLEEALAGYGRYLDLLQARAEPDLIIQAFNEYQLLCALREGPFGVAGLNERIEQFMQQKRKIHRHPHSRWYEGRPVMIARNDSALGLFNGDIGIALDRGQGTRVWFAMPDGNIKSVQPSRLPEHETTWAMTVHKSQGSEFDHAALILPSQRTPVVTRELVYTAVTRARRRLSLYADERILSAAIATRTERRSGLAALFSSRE
T1 sequence (P07648 whole entry): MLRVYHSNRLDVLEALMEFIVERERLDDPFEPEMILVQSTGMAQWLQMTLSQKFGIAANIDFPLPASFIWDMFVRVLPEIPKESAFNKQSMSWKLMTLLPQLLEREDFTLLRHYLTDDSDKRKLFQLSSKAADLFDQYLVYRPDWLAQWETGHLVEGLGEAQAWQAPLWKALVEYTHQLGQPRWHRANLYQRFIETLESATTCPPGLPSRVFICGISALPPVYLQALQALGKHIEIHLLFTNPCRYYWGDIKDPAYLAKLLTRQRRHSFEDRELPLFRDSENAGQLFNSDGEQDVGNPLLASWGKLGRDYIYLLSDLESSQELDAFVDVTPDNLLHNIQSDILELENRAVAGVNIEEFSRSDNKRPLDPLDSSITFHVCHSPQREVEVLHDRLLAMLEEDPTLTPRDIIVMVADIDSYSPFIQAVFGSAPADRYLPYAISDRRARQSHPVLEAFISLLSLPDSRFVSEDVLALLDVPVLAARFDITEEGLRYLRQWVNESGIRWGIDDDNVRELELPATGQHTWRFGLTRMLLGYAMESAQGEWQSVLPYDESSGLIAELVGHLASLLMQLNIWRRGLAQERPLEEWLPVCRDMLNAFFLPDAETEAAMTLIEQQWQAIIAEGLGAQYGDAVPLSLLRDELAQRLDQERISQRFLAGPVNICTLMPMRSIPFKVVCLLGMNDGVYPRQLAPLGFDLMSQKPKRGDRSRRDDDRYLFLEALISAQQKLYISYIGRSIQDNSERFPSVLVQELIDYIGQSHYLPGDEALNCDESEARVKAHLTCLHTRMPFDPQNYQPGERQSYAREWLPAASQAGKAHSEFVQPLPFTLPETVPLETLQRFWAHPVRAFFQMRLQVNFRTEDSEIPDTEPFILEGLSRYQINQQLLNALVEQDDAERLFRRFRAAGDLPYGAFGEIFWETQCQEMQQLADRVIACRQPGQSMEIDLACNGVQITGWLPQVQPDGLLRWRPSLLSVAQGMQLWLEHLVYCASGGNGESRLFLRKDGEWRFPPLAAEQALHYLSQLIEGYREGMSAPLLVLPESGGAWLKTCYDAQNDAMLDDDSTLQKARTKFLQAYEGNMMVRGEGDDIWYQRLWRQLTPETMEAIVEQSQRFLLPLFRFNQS
T1 sequence (P08394 whole entry): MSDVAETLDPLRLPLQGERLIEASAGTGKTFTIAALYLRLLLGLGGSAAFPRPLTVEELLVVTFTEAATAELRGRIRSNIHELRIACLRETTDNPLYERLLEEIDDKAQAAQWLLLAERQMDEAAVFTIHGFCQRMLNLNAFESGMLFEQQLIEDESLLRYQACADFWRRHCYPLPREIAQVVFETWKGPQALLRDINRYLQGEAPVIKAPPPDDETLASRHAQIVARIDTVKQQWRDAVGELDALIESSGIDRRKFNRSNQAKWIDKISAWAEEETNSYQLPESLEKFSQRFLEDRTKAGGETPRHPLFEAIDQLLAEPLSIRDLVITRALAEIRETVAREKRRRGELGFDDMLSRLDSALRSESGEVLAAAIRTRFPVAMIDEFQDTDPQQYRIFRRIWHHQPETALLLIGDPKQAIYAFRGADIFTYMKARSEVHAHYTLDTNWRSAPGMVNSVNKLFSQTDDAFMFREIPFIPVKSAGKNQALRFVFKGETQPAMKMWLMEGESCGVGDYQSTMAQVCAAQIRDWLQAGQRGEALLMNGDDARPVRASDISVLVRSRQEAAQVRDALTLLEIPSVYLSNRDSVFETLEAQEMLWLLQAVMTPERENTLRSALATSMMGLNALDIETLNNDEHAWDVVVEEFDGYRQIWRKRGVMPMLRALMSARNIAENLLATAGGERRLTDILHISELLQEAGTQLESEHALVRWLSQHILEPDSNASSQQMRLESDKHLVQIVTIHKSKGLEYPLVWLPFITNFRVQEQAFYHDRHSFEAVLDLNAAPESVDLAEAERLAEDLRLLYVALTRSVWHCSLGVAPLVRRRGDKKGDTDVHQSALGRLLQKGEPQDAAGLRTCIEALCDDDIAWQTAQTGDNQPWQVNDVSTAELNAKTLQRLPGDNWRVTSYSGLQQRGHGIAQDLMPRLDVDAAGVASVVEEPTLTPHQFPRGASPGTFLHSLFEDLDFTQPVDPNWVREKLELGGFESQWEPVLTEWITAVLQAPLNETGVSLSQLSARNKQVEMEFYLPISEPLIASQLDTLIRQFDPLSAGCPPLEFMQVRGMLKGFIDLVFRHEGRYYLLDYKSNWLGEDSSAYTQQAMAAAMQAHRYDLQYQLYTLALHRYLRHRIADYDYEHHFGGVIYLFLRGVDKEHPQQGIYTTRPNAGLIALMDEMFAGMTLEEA

[1] = loss of viability in HepG2 cells – cell-based, CellTiter-Glo, cherry-picked, cytotoxicity control for Shn3 inhibitor project, dose response (AID 624134); format: functional
[2] = Counterscreen for AddAB inhibitors: absorbance-based bacterial cell-based high throughput dose response assay for inhibitors of bacterial viability. [Related pubchem assays (depositor defined):AID435030, AID449728, AID449731, AID488942, AID488955, AID488956]; format: functional
[3] = reduction of Shn3 3'UTR-driven luciferase in osteoblasts – cell-based, Clone20 osteoblasts, firefly luciferase, cherry-picked, dose response (AID 624132); format: functional;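 further: firefly luciferase luminescence from reporter carrying the Shn3 3'UTR in osteoblasts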
cells = format: functional

Row | Structure (SMILES) | IC50 (Exodeoxyribonuclease V) | AC50 [1] | IC50 [2] | AC50 [3] | IC50 (cells)
1 | O=C(CC(O)(C(F)(F)F)C(F)(F)F)Nc1ccc(Cl)c(Cl)c1 | 44 µM (inactive) | 3.7 µM (active) | 39 µM (inactive) | 4.97 µM (active) | 
2 | O=C(CNc1cccc2ccccc12)N/N=C/c1ccc([N+](=O)[O-])o1 | > 118 µM (inactive) |  | > 118 µM (inactive) |  | 3.24 µM (active)
3 | Cc1ccc(NC(=O)C2=C(c3ccccc3)S(=O)(=O)CCS2(=O)=O)cc1 |  | 12.5 µM (active) |  | 0.558 µM (active) | 38.3 µM (active)
